# According to patent US20250129096A1, “ANNULATED 2-AMINO-3-CYANO THIOPHENES AND DERIVATIVES FOR THE TREATMENT OF CANCER” (Boehringer Ingelheim Int'l GmbH Corp., priority 2021, published 2025):
# Experiments:
# Caco-2 assay = assay type: in vitro ADME; conditions: human; for Papp A→B at 90 min, 10 μM: Caco-2, apical to basolateral, pH 7.4, read-out: Caco PappAB; for efflux ratio at 90 min, 10 μM: Caco-2, pH 7.4, efflux ratio PappBA/PappAB, read-out: Caco ER
# Description: The assay provides information on the potential of a compound to pass the cell membrane, on the extent of oral absorption as well as on whether the compound is actively transported by uptake and/or efflux transporters. Permeability measurements across polarized, confluent Caco-2 cell monolayers grown on permeable filter supports (Corning, catalog #3391) are used. […] The receiver and donor compartments contain 0.25% bovine serum albumine (BSA) in assay buffer. Passive diffusion and/or active transport of compounds across the monolayer is measured in both apical to basolateral (a-b) and basolateral to apical (b-a) direction. a-b permeability (PappAB) represents drug absorption from the intestine into the blood and b-a permeability (PappBA) drug secretion from the blood back into the intestine via both passive permeability as well as active transport mechanisms mediated by efflux and uptake transporters that are expressed on the Caco-2 cells. After a pre-incubation of 25-30 min at 37° C., at predefined time points (0, 30, 60 and 90 min), samples were taken from the receiver and donor compartment, respectively. Concentrations of test compounds in samples were measured by HPLC/MS/MS, samples from the donor compartment were diluted 1:50 (v:v) with assay buffer, samples from receiver compartment were measured without dilution.
# Apparent permeabilities in a-b (PappAB) and b-a (PappBA) directions are calculated according to the formula:
# [formula] • Vrec [mL]: buffer volume in receiver compartment • Cdon [μmol/mL]: concentration of test compound in donor compartment at t=0 • ΔCrec: difference between concentrations of test compound in receiver compartment at start and end of incubation time • Δt: Incubation time • Vrec·ΔCrec/Δt [μmol/min]: Amount of compound transferred to receiver compartment per time • A [cm^2]: filter surface
# Caco-2 efflux ratios (ER) are calculated as the ratio of PappBA/PappAB.
# [1] = tested on: MKN1 cells (gastric cancer, wt amplified); test: MKN1 CTG proliferation assay (120 h), assay 2; assay type: cell-based; conditions: Homo sapiens, MKN-1, CellTiter-Glo, 200 cells per well
# Procedure: (§1) MKN1 cells (JCRB0252) are dispensed into white 384-well plates, flat and white bottom (Corning Costar, PNr.: 3570) at a density of 400 cells per well in 50 μL RPMI 1640 (PAN-Biotech, PNr.: P04-18047)+10% FCS (HyClone, PNr.: SH30084.03) (assay 1) or into black 384-well plates, flat and clear bottom (Greiner, PNr. 781091) at a density of 200 cells per well in 60 μl RPMI-1640 (Gibco #A10491)+10% FCS (HyClone, PNr.: SH30084.03)+ PenStrep (Gibco, PNr. 15140-122) (assay 2). […] Compounds (10 mM stock in DMSO) are added at logarithmic dose series using the HP Digital Dispenser D300 (Tecan) (assay 1+2) or the ECHO acoustic liquid handler system (Beckman Coulter) (assay 3), including DMSO controls and normalizing for added DMSO. Plates are incubated for 120 h, and cell viability is measured using CellTiter-Glo luminescent cell viability reagent (Promega product code G7570). Viability (stated as percent of control) is defined as relative luminescence units RLU of each well divided by the RLU of cells in DMSO controls. IC50 values are determined from viability measurements by non-linear regression using a four-parameter model.
# [2] = tested on: MKN1 cells (gastric cancer, wt amplified); test: MKN1 CTG proliferation assay (120 h), assay 1; assay type: cell-based; conditions: Homo sapiens, MKN-1, CellTiter-Glo, 400 cells per well
# Procedure: as §1
# [3] = tested on: NCI-H358 cells (NSCLC, G12C); test: NCI-H358 CTG proliferation assay (120 h), assay 1; assay type: cell-based; conditions: Homo sapiens, CellTiter-Glo, 96 well, 2000 cells per well
# Procedure: NCI-1H358 cells (ATCC No. CRL-5807) are dispensed into white bottom opaque 96 well plates (Perkin Elmer cat no. 5680) at a density of 2000 cells per well in 100 μL RPM 1-1640 ATCC-Formulation (Gibco #A10491)+10% FCS (fetal calf serum) (assay 1) or into black 384-well plates, flat and clear bottom (Greiner, PNr. 781091) at a density of 200 cells per well in 60 μl RPMI-1640 ATCC-Formulation (Gibco #A10491)+10% FCS (fetal calf serum) (assay 2). […] Compounds (10 mM stock in DMSO) are added at logarithmic dose series using the HP Digital Dispenser D300 (Tecan) (assay 1) or the ECHO acoustic liquid handler system (Beckman Coulter) (assay 2), normalizing for added DMSO and including DMSO controls. For the TO time point measurement, untreated cells are analyzed at the time of compound addition. Plates are incubated for 120 h, and cell viability is measured using CellTiter-Glo luminescent cell viability reagent (Promega product code G7570). Viability (stated as percent of control) is defined as relative luminescence units RLU of each well divided by the RLU of cells in DMSO controls. IC50 values are determined from viability measurements by non-linear regression using a four-parameter model.
# KRAS (G13D)::SOS1 = biological target: T1, KRAS (G13D)::SOS1 (Homo sapiens, UniProt P01116, C118S/G13D); test: KRAS::SOS1 AlphaScreen binding assay, KRAS G13D
# T1 construct: KRAS (G13D) 1-169, N-terminal 6His-tag for purification, cleaved off; 6His-tag (N, cleaved yes); TEV cleavage site
# T1 sequence (P01116 1-169 isoform P01116-2 G13D/C118S): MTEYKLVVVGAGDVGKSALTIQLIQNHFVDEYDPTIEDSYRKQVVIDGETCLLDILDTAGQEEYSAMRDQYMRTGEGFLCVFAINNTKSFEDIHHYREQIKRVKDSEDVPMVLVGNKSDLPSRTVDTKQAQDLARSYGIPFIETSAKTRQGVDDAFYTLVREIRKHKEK
# Procedure: Low IC50 values in this assay setting are indicative of strong inhibition of protein-protein interaction between SOS1 and KRAS:
# These assays measure the inhibitory effect of compounds on KRAS mutant protein-protein interactions using the Alpha Screen technology by Perkin Elmer.
# For the chosen highest assay concentration of 100 μM, 150 nL of compound solution are transferred from a 10 mM DMSO compound stock solution. A series of eleven fivefold dilutions per compound are transferred to the assay plate, compound dilutions are tested in duplicates. DMSO are added as backfill to a total volume of 150 nL.
# The assays run on a fully automated robotic system in a darkened room below 100 Lux. To 150 nl of compound dilution 10 μl of a mix including KRAS mutant protein, SOS1 (final assay concentrations see above) and GDP nucleotide (Sigma G7127; final assay concentration 10 μM) in assay buffer (1×PBS, 0.1% BSA, 0.05% Tween 20) are added into columns 1-24. […]
# Plates are kept at room temperature in a darkened incubator. After an additional 60 minutes incubation time the signal is measured in a PerkinElmer Envision HTS Multilabel Reader using the AlphaScreen specs from PerkinElmer.
# IC50 values are calculated and analyzed with Boehringer Ingelheim's MEGALAB IC50 application using a 4 parametric logistic model.
"Papp A→B at 90 min, 10 μM (Caco-2 assay)","efflux ratio at 90 min, 10 μM (Caco-2 assay)",IC50 (KRAS (G13D)::SOS1),SMILES,IC50 [1],IC50 [2],IC50 [3]
130 nm/s,1.2,,"C[C@H]1CNCCCN1c1nccc(-c2noc3c2CCC[C@@]32CCCc3sc(N)c(C#N)c32)n1 (single isomer, unassigned) [IIb-5]",,,
170 nm/s,2,,C[C@H](Oc1ccnc(-c2noc3c2CCC[C@@]32CCCc3sc(N)c(C#N)c32)n1)[C@@H]1CCCN1C [IIb-3],,,
,,0.089 µM,C[C@H]1[C@@H]2CCCN2CCCN1c1nccc(-c2onc3c2CCC[C@@]32CCCc3sc(N)c(C#N)c32)n1 [Id-1],,,
330 nm/s,0.6,,C[C@H](Oc1nccc(-c2onc3c2CCC[C@@]32CCCc3sc(N)c(C#N)c32)n1)[C@@H]1C[C@@H](F)CN1C [Ie-2],3.46 µM,,
94 nm/s,3.2,0.932 µM,C[C@H]1CNCCCN1c1nccc(-c2onc3c2CCC[C@@]32CCCc3sc(N)c(C#N)c32)n1 [If-1],,,

SMILES,"Papp A→B at 90 min, 10 μM (Caco-2 assay)","efflux ratio at 90 min, 10 μM (Caco-2 assay)",IC50 (KRAS (G13D)::SOS1),IC50 [1],IC50 [2],IC50 [3]
C[C@H]1CNCCN1c1nccc(-c2noc3c2CCC[C@@]32CCCc3sc(N)c(C#N)c32)n1 [IIf-1],120 nm/s,,,2.35 µM,0.29 µM,0.831 µM
